{"source": "ChEMBL document CHEMBL1146410", "about": "“Bioactive Terpenoids from Octocorallia. 4. Three New Cembrane-Type Diterpenoids from the Soft Coral Lobophytum schoedei” (J Nat Prod, 1997)", "type_in_all_cases": "organism-based", "key": {"[1]": {"assay": "Toxicity in Artemia salina larvae at 30 ppm", "conditions": "in vivo, read-out: Activity"}, "Oryzias latipes [2]": {"tested_on": "Oryzias latipes", "assay": "Ichthyotoxicity in Oryzias latipes", "conditions": "in vivo"}, "Oryzias latipes [3]": {"tested_on": "Oryzias latipes", "assay": "Toxicity in Oryzias latipes", "conditions": "in vivo"}}, "data": [{"compound": "CC(=O)OCC1=C\\CC/C(C)=C/CC[C@@]2(C)CC[C@@](C(C)C)(\\C=C\\1)O2", "note": "[LOBOPHYNIN A]", "values": [{"measurement": "mortality at 30 ppm", "setting": "[1]", "value": 20, "unit": "%"}]}, {"compound": "CC(=O)OCC1=C2CC/C(C)=C/CC[C@@]3(C)O[C@@H]3CC/C(C)=C/[C@H]2OC1", "note": "[LOBOPHYNIN B]", "values": [{"measurement": "mortality at 30 ppm", "setting": "[1]", "value": 25, "unit": "%"}]}, {"compound": "COC(=O)/C1=C/CC/C(C)=C/[C@@H]2OCC(C)=C2CC[C@@]2(C)O[C@@H]2CC1", "note": "[LOBOPHYNIN C]", "values": [{"measurement": "LC100", "setting": "Oryzias latipes [2]", "value": 30, "unit": "ppm"}, {"measurement": "LC50", "setting": "Oryzias latipes [3]", "value": 22.5, "unit": "ppm"}]}]}
